Data on 8 compounds can be found in ChEMBL document CHEMBL3734669, “Δ(5)-Cholenoyl-amino acids as selective and orally available antagonists of the Eph-ephrin system” (Eur J Med Chem, 2015).

A word on the AUC(0-t): it is the area under the concentration-time curve up to a stated or last time point. Read a high AUC(0-t) as high exposure. As a reminder, the Cmax is the maximum level reached in the sampled fluid or tissue. In general, EC50 refers to the concentration that produces a half-maximal response. In general, logD refers to lipophilicity at a set pH, counting ionised and neutral species. Read a high logD as a more lipophilic compound. In general, IC50 refers to the midpoint of a concentration-inhibition curve. A low value points to higher potency.

Molecules are shown by their SMILES. Converted amounts (≈) assume the structure as drawn. The source made the active and inactive calls. No cut-off for these calls is given here.

The target of series [1] is T1, Ephrin type-A receptor 2 (Homo sapiens, UniProt P29317). Kind of series: Displacement of biotinylated-ephrin-A1 from EphA2 receptor (unknown origin) up to 100 uM preincubated for 1 hr followed by biotinylated-ephrin-A1-Fc addition measured after 4 hrs by ELISA. A general note: In an ELISA, binding on a coated surface is turned into a signal by an enzyme label.
The nature of series [2]: AUC (0 to t) in mouse at 30 mg/kg, po administered as single dose by HPLC-MS analysis. The series is classed as ADME, organism-based. The conditions noted are these: in vivo.
The nature of series [3]: Cmax in mouse at 30 mg/kg, po administered as single dose by HPLC-MS analysis. The series is classed as ADME, organism-based. Set-up: dose 30 mg/kg, route oral. The conditions noted are these: in vivo.
Series [4] is described as follows: Metabolic stability in mouse plasma assessed as compound remaining at 1 uM after 24 hrs by HPLC-ESI-MS/MS analysis. The format is ADME, cell-free. The conditions noted are these: read-out: Stability.
Series [5] has as its target T2, Nuclear receptor subfamily 1 group I member 2 (Homo sapiens, UniProt O75469).
T2 sequence (O75469 whole entry): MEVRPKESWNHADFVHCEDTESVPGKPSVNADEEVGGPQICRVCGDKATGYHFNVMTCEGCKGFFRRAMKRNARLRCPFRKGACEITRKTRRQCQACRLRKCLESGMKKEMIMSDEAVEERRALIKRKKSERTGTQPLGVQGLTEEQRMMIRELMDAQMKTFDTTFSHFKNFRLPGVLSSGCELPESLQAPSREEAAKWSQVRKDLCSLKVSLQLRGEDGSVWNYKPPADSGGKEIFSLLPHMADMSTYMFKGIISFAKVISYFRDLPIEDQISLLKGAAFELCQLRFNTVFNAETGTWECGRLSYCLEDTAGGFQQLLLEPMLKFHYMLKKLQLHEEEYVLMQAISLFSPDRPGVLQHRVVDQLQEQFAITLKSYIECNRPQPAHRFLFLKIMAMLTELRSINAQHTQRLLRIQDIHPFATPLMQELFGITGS
Kind of series: Activation of human recombinant PXR up to 10 uM by alphascreen method. Background: Bead proximity is the source of the signal in Alpha formats.

The nature of series [6]: Kinetic solubility of the compound in NaCl solution at 25 deg C after 2 hrs by HPLC-ESI-MS/MS analysis. Particulars: read-out: Kinetic_solubility. The series is classed as physicochemical.
The target of series [7] is T3, G-protein coupled bile acid receptor 1 (Homo sapiens, UniProt Q8TDU6).
T3 sequence (Q8TDU6 whole entry): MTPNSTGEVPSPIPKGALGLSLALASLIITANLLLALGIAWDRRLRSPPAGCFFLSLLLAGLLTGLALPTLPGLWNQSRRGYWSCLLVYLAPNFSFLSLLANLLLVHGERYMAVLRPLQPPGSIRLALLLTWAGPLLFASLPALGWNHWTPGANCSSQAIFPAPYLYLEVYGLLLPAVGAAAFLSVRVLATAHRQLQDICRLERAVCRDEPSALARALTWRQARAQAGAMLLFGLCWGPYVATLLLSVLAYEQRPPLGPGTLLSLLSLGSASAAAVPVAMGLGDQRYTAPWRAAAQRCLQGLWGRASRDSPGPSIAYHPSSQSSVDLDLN
Kind of series: Agonist activity at TGR5 (unknown origin) assessed as cAMP level. The format is functional. Background: Changes in cAMP serve as a functional read-out for many G protein-coupled receptors.

Series [8] is described as follows: n-octanol-water distribution coefficient, log D of the compound at pH 7.4 after 4 hrs by shake-flask method. The format is physicochemical.
The nature of series [9]: Metabolic stability in mouse liver S9 fractions assessed as compound remaining at 1 uM after 1 hr by HPLC-ESI-MS/MS analysis in presence of NADPH regenerating system. Particulars: read-out: Stability. The format is ADME, subcellular, Liver S9 fraction.
Series [10] is described as follows: Cytotoxicity against human PC3 cells at 10 to 30 uM after 2 hrs by LDH release assay. The format is cell-based. Particulars: pc-3, 2 h.
Series [11] addresses T1, Ephrin type-A receptor 2. The series is described as follows: Displacement of biotinylated-ephrin-A1-Fc from EphA2-Fc receptor (unknown origin) preincubated for 1 hr followed by biotinylated-ephrin-A1-Fc addition measured after 4 hrs by ELISA.

T1 sequence (P29317 whole entry): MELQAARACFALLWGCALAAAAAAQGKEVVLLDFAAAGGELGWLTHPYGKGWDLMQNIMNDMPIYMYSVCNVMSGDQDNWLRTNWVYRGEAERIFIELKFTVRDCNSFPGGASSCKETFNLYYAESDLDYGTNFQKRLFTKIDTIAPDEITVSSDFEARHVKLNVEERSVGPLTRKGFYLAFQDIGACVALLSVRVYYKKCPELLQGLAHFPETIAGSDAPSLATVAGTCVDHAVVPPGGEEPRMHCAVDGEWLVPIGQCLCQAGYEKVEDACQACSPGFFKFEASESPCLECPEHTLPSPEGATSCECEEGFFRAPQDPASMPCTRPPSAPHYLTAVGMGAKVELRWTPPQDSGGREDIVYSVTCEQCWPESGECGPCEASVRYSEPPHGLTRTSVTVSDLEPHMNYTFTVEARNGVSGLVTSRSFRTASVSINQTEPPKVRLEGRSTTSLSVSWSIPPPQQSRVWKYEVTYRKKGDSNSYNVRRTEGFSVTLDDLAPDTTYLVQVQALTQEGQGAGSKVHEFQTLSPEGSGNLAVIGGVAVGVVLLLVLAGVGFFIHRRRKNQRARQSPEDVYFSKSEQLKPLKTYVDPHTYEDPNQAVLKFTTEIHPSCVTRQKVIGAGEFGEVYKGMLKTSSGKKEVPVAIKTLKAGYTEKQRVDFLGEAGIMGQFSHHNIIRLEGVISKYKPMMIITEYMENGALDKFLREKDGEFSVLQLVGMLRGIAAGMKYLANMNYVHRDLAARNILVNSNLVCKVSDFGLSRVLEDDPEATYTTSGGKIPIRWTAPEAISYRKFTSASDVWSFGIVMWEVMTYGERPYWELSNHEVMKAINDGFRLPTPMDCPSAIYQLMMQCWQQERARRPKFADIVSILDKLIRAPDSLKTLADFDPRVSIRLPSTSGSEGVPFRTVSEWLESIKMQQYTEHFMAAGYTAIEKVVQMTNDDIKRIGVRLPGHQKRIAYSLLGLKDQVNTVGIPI

On to `CSCC[C@H](NC(=O)CC[C@@H](C)[C@H]1CC[C@H]2[C@@H]3CC=C4C[C@@H](O)CC[C@]4(C)[C@H]3CC[C@]12C)C(=O)O`, for which the inhibition entry on Ephrin type-A receptor 2 [1] is “inactive”.
On the same count and under the same terms, the entry for `C[C@H](CCC(=O)NCC(=O)O)[C@H]1CC[C@H]2[C@@H]3CC=C4C[C@@H](O)CC[C@]4(C)[C@H]3CC[C@]12C` is “inactive”; for `COC(=O)[C@H](Cc1c[nH]c2ccccc12)NC(=O)CC[C@@H](C)[C@H]1CC[C@H]2[C@@H]3CC=C4C[C@@H](O)CC[C@]4(C)[C@H]3CC[C@]12C` it is “inactive”.
Take `C[C@H](CCC(=O)N[C@H](CC(=O)O)Cc1c[nH]c2ccccc12)[C@H]1CC[C@H]2[C@@H]3CC[C@@H]4C[C@H](O)CC[C@]4(C)[C@H]3CC[C@]12C`: the AUC(0-t) in series [2] turned out to be 21.2 ng·h/mL. This compound returned a Cmax in series [3] of 14 nM. Also, the remaining at 24 h, 1 µM in [4] came out at 98.3%. Further, the Activity in series [5] came out at 30%. In series [6], the solubility kinetic at 2 h is 31.8 µM (≈ 18.3 µg/mL). The EC50 in series [7] turned out to be 4 µM. For the same compound, the logD at 4 h in [8] is 4.9. In addition, the remaining at 1 h, 1 µM in [9] was found to be 56%.
For `C[C@H](CCC(=O)N[C@@H](Cc1c[nH]c2ccc(O)cc12)C(=O)O)[C@H]1CC[C@H]2[C@@H]3CC=C4C[C@@H](O)CC[C@]4(C)[C@H]3CC[C@]12C`, in series [10], the Activity result is reported as “Non-toxic”.
Turning to `C[C@H](CCC(=O)O)[C@H]1CC[C@H]2[C@@H]3CC=C4C[C@@H](O)CC[C@]4(C)[C@H]3CC[C@]12C`, the IC50 at Ephrin type-A receptor 2 [11] is 39.8 µM.
In turn, `C[C@H](CCC(=O)N[C@@H](Cc1ccccc1)C(=O)O)[C@H]1CC[C@H]2[C@@H]3CC=C4C[C@@H](O)CC[C@]4(C)[C@H]3CC[C@]12C` showed an IC50 on Ephrin type-A receptor 2 [11] of over 100 µM.
Still for that read-out and setting: the figure for `C[C@H](CCC(=O)N[C@@H](CO)C(=O)O)[C@H]1CC[C@H]2[C@@H]3CC=C4C[C@@H](O)CC[C@]4(C)[C@H]3CC[C@]12C` is over 100 µM.
